Source: ChEMBL document CHEMBL1133244, “Solid-phase synthesis of an arylsulfone hydroxamate library” (Bioorg Med Chem Lett, 2000)
Calls of active or inactive are those of the source. The rule behind the calls is not given here.

What was measured:
Stromelysin-1 [1] = molecular target: T1, Stromelysin-1 (Homo sapiens, UniProt P08254); test: Inhibitory activity against recombinant matrix metalloprotease-3
[2] = molecular target: T2, 72 kDa type IV collagenase (Homo sapiens, UniProt P08253); test: Inhibitory activity against recombinant matrix metalloprotease-2
Interstitial collagenase [3] = molecular target: T3, Interstitial collagenase (Homo sapiens, UniProt P03956); test: Inhibition of Matrix metalloprotease-1
T3 sequence (P03956 whole entry): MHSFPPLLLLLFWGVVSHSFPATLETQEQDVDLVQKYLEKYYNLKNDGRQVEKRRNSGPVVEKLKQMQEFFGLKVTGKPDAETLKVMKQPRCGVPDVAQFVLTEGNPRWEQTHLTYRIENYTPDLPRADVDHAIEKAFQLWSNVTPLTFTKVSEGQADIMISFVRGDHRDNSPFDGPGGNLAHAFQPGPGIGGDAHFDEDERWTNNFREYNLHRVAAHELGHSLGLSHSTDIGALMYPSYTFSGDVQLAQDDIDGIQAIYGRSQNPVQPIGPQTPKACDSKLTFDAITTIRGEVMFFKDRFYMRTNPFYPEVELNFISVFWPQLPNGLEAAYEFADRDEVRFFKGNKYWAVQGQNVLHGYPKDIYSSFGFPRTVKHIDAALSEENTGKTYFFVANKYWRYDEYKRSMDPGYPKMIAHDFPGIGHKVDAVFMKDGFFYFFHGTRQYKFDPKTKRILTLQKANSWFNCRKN

[4] = molecular target: Phosphodiesterase 4 (Cavia porcellus); test: Phosphodiesterase 4 inhibitory activity measured against guinea pig macrophage homogenate
Stromelysin-1 [5] = molecular target: T1, Stromelysin-1; test: In vitro inhibition of human recombinant Matrix metalloprotease-3.
Interstitial collagenase [6] = molecular target: T3, Interstitial collagenase; test: In vitro inhibition of human recombinant Matrix metalloprotease-1.
[7] = In vitro for the inhibition of TNF alpha release by human peripheral blood monocytes (PBMs); type: functional
[8] = molecular target: Disintegrin and metalloproteinase domain-containing protein 17 (Homo sapiens) (UniProt P78536); test: Inhibitory activity against TACE
[9] = molecular target: T2, 72 kDa type IV collagenase
Description: In vitro inhibition of human recombinant Matrix metalloprotease-2.

T1 sequence (P08254 whole entry): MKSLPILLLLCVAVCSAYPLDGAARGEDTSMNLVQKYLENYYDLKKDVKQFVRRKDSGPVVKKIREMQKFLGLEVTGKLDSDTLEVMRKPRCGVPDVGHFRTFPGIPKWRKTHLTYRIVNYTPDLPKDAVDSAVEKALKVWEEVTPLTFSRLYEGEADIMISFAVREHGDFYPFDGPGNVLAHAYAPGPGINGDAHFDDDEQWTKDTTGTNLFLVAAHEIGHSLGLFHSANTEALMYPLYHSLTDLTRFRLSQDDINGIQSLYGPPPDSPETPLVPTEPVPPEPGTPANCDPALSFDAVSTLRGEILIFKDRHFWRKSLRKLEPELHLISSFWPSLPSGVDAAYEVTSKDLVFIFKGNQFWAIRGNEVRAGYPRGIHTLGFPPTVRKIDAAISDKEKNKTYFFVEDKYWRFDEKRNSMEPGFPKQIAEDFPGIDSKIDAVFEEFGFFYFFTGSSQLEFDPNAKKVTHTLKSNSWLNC
Chain of Disintegrin and metalloproteinase domain-containing protein 17 (Homo sapiens) (P78536 whole entry, the tested form may be a part): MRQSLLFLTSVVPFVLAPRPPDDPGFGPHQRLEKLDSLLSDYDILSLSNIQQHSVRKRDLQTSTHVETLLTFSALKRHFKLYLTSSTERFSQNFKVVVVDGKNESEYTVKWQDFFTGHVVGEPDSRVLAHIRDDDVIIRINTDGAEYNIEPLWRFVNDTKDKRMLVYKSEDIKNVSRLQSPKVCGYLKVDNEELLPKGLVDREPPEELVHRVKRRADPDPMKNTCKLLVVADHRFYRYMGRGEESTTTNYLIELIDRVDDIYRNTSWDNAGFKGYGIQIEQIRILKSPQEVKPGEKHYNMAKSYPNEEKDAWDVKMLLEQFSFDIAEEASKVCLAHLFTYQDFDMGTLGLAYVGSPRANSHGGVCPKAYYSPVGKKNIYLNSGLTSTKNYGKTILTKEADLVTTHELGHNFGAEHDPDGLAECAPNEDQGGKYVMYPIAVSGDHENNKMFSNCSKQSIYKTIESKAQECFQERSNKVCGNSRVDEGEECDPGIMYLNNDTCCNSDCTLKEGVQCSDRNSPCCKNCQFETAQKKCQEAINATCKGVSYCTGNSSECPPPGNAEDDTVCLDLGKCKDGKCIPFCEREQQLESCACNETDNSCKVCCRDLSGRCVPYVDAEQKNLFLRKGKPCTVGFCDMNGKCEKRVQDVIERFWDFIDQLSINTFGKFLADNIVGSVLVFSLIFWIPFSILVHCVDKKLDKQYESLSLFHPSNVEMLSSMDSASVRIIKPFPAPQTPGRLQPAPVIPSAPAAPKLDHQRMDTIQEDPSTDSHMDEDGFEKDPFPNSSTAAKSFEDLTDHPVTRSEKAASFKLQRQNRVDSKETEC
T2 sequence (P08253 whole entry): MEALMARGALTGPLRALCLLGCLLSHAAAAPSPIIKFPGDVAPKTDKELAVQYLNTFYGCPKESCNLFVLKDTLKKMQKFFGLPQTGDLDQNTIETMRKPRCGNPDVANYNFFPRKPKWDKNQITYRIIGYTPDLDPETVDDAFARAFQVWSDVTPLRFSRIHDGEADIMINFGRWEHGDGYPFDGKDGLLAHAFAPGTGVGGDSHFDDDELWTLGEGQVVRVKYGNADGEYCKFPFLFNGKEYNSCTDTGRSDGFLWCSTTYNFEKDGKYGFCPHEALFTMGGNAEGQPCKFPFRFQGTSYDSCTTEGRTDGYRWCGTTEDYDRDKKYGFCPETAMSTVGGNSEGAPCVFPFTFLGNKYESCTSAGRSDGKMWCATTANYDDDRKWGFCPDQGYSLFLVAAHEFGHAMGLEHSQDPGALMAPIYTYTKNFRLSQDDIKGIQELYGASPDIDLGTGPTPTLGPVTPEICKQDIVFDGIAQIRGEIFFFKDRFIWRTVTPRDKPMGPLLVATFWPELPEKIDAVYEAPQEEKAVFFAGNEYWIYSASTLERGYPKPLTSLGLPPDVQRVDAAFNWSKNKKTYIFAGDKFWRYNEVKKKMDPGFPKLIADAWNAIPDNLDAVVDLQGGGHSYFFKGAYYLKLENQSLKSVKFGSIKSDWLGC

Structure (SMILES) | IC50 (Stromelysin-1 [1]) | IC50 [2] | IC50 (Interstitial collagenase [3]) | IC50 [4] | Ki (Stromelysin-1 [5]) | Ki (Interstitial collagenase [6]) | IC50 [7] | Activity [8] | Ki [9]
COc1ccc(S(=O)(=O)C(CCCCc2ccccc2)CC(=O)NO)cc1OC1CCCC1 (centres undefined) | > 10 µM | > 10 µM | > 10 µM | 0.0069 µM | – | – | – | – | –
COc1ccc(S(=O)(=O)C(CCCCc2ccc3c(c2)OCO3)CC(=O)NO)cc1OC1CCCC1 (centres undefined) | > 10 µM | > 10 µM | > 10 µM | 0.011 µM | – | – | – | – | –
COc1ccc(S(=O)(=O)C(CCCCc2ccccc2)CC(=O)NO)cc1OC (centres undefined) | > 10 µM | > 10 µM | > 10 µM | – | – | – | – | – | –
COc1ccc(S(=O)(=O)C(CC(=O)NO)c2ccc(OCc3ccccc3)cc2)cc1 (centres undefined) | – | – | – | 0.52 µM | > 10 µM | > 10 µM | 1.2 µM | inactive | > 10 µM
COc1ccc(S(=O)(=O)C(CC(=O)NO)c2ccc(Oc3ccccc3)cc2)cc1 (centres undefined) | – | – | – | 0.28 µM | > 10 µM | > 10 µM | 0.73 µM | inactive | > 10 µM
COc1ccc(S(=O)(=O)C(CC(=O)NO)c2ccc(-c3ccccc3)cc2)cc1 (centres undefined) | – | – | – | 3.6 µM | > 10 µM | > 10 µM | 4.4 µM | inactive | > 10 µM

Results, then the molecule that gave them:

IC50 (Stromelysin-1 [1]) | IC50 [2] | IC50 (Interstitial collagenase [3]) | IC50 [4] | Ki (Stromelysin-1 [5]) | Ki (Interstitial collagenase [6]) | IC50 [7] | Activity [8] | Ki [9] | Structure (SMILES)
– | – | – | – | 4.42 µM | 1.9 µM | > 10 µM | inactive | 0.088 µM | COC(=O)c1ccc(C(CC(=O)NO)S(=O)(=O)c2ccc(OC)cc2)cc1 (centres undefined)
– | – | – | – | 0.404 µM | 4.17 µM | > 10 µM | inactive | 0.03 µM | CCCCC(CC(=O)NO)S(=O)(=O)c1ccc(OC)cc1 (centres undefined)
– | – | – | – | 0.06 µM | 1.01 µM | 4.6 µM | inactive | 0.0008 µM | CCOC(=O)C1CCCC(C(CC(=O)NO)S(=O)(=O)c2ccc(OC)cc2)C1 (centres undefined)
– | – | – | – | > 10 µM | > 10 µM | > 10 µM | inactive | > 10 µM | COc1ccc(S(=O)(=O)C(CC(=O)NO)c2ccc(OC(C)C)cc2)cc1 (centres undefined)
– | – | – | – | 0.676 µM | 1.72 µM | 8 µM | inactive | 0.027 µM | COc1ccc(S(=O)(=O)C(CC(=O)NO)CC(C)CC(C)(C)C)cc1 (centres undefined)
